Patent US20210154190A1, “SHP2 INHIBITOR COMPOSITIONS AND METHODS FOR TREATING CANCER” (Revolution Medicines, Inc., priority 2018, published 2021)

Experiments:
SHP2 WT = target: T1, SHP2 WT (Homo sapiens, UniProt Q06124); assay: EGF-induced pERK AlphaLISA in T-REx-293-SHP2 cells, WT; assay type: cell-based; settings: Variant WT
T1 construct: expressed in transfected cells; host or cells: Flp-In T-REx-293 (T-REx-293-SHP2)
Description: (§1) An experimental system was creating to test the activity of SHP2 mutants on an isogenic background (FIG. 6). The Flp-In T-REx-293 cell line was obtained from Gibco® and cultivated in high glucose DMEM™ containing 2 mM L-glutamine (Hyclone®), supplemented with 10% FBS (Hyclone®), 1% penicillin/streptomycin (Gibco®), 100 μg/mL Zeocin™ (Gibco®), and 15 μg/mL blasticidin (Gibco®) in a humidified cell culture incubator at 37° C., 5% CO2.
(§2) Wild type or mutant SHP2 variants were synthesized and subcloned into the pcDNA5/FRT/TO vector (ThermoFisher). Plasmids were co-transfected with the pOG44 Flp recombinase expression plasmid (ThermoFisher®) into Flp-In T-REx-293 cells using X-tremegene 9 DNA transfection reagent (Sigma®), according to the manufacturer's instructions. […]
(§3) For the final 5 minutes of drug treatment, cells were stimulated with 50 ng/mL Epidermal Growth Factor (Sigma®). […] Samples were read using an EnVision Multilabel Plate Reader (Perkin Elmer®) using standard AlphaLISA settings. Assay data was plotted and EC50 values were determined using four-parameter concentration-response model in GraphPad Prism 7. […]

SHP2 S189A = target: T2, SHP2 S189A (Homo sapiens, UniProt Q06124, S189A); assay: EGF-induced pERK AlphaLISA in T-REx-293-SHP2 cells, S189A; assay type: cell-based; settings: Variant S189A
T2 construct: expressed in transfected cells; host or cells: Flp-In T-REx-293 (T-REx-293-SHP2)
Description: as §1, §2, §3

SHP2 P491S = target: T3, SHP2 P491S (Homo sapiens, UniProt Q06124, P491S); assay: EGF-induced pERK AlphaLISA in T-REx-293-SHP2 cells, P491S; assay type: cell-based; settings: Variant P491S
T3 construct: expressed in transfected cells; host or cells: Flp-In T-REx-293 (T-REx-293-SHP2)
Description: as §1, §2, §3

SHP2 T73I = target: T4, SHP2 T73I (Homo sapiens, UniProt Q06124, T73I); assay: EGF-induced pERK AlphaLISA in T-REx-293-SHP2 cells, T73I; assay type: cell-based; settings: Variant T73I
T4 construct: expressed in transfected cells; host or cells: Flp-In T-REx-293 (T-REx-293-SHP2)
Description: as §1, §2, §3

SHP2 S502P = target: T5, SHP2 S502P (Homo sapiens, UniProt Q06124, S502P); assay: EGF-induced pERK AlphaLISA in T-REx-293-SHP2 cells, S502P; assay type: cell-based; settings: Variant S502P
T5 construct: expressed in transfected cells; host or cells: Flp-In T-REx-293 (T-REx-293-SHP2)
Description: as §1, §2, §3

SHP2 Q506P = target: T6, SHP2 Q506P (Homo sapiens, UniProt Q06124, Q506P); assay: EGF-induced pERK AlphaLISA in T-REx-293-SHP2 cells, Q506P; assay type: cell-based; settings: Variant Q506P
T6 construct: expressed in transfected cells; host or cells: Flp-In T-REx-293 (T-REx-293-SHP2)
Description: as §1, §2, §3

SHP2 T253M/Q257L [1] = target: T7, SHP2 T253M/Q257L (Homo sapiens, UniProt Q06124, Q257L/T253M); assay: SHP2 allosteric inhibition assay (DiFMUP), T253M/Q257L; assay type: biochemical; design: expressed in transfected cells; settings: Variant T253M/Q257L
T7 sequence (Q06124 1-593 T253M/Q257L): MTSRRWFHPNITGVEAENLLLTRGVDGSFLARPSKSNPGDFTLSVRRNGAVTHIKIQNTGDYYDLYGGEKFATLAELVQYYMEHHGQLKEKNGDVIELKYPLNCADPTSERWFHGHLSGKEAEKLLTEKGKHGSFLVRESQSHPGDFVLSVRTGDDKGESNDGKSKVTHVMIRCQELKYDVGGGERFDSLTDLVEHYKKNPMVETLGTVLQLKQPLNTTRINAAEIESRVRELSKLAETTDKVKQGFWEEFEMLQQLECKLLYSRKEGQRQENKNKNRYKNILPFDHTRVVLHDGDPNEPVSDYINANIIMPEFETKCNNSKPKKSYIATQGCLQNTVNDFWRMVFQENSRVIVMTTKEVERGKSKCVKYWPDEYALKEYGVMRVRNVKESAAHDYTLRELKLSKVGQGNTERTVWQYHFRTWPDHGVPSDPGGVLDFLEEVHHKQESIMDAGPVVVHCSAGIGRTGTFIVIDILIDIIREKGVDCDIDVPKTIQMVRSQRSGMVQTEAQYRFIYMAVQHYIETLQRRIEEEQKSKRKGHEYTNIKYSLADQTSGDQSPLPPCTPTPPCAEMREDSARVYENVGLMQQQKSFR

SHP2 E69K = target: T8, SHP2 E69K (Homo sapiens, UniProt Q06124, E69K); assay: EGF-induced pERK AlphaLISA in T-REx-293-SHP2 cells, E69K; assay type: cell-based; settings: Variant E69K
T8 construct: expressed in transfected cells; host or cells: Flp-In T-REx-293 (T-REx-293-SHP2)
Description: as §1, §2, §3

SHP2 D61G = target: T9, SHP2 D61G (Homo sapiens, UniProt Q06124, D61G); assay: EGF-induced pERK AlphaLISA in T-REx-293-SHP2 cells, D61G; assay type: cell-based; settings: Variant D61G
T9 construct: expressed in transfected cells; host or cells: Flp-In T-REx-293 (T-REx-293-SHP2)
Description: as §1, §2, §3

SHP2 E76K = target: T10, SHP2 E76K (Homo sapiens, UniProt Q06124, E76K); assay: EGF-induced pERK AlphaLISA in T-REx-293-SHP2 cells, E76K; assay type: cell-based; settings: Variant E76K
T10 construct: expressed in transfected cells; host or cells: Flp-In T-REx-293 (T-REx-293-SHP2)
Description: as §1, §2, §3

SHP2 A72V = target: T11, SHP2 A72V (Homo sapiens, UniProt Q06124, A72V); assay: EGF-induced pERK AlphaLISA in T-REx-293-SHP2 cells, A72V; assay type: cell-based; settings: Variant A72V
T11 construct: expressed in transfected cells; host or cells: Flp-In T-REx-293 (T-REx-293-SHP2)
Description: as §1, §2, §3

SHP2 T253M/Q257L [2] = target: T7, SHP2 T253M/Q257L; assay: EGF-induced pERK AlphaLISA in T-REx-293-SHP2 cells, T253M/Q257L; assay type: cell-based; design: expressed in transfected cells; host or cells: Flp-In T-REx-293 (T-REx-293-SHP2)
Description: as §1, §2, §3

SHP2 L262R = target: T12, SHP2 L262R (Homo sapiens, UniProt Q06124, L262R); assay: EGF-induced pERK AlphaLISA in T-REx-293-SHP2 cells, L262R; assay type: cell-based; settings: Variant L262R
T12 construct: expressed in transfected cells; host or cells: Flp-In T-REx-293 (T-REx-293-SHP2)
Description: as §1, §2, §3

SHP2 F285S = target: T13, SHP2 F285S (Homo sapiens, UniProt Q06124, F285S); assay: EGF-induced pERK AlphaLISA in T-REx-293-SHP2 cells, F285S; assay type: cell-based; settings: Variant F285S
T13 construct: expressed in transfected cells; host or cells: Flp-In T-REx-293 (T-REx-293-SHP2)
Description: as §1, §2, §3

Cc1nc(N2CCC3(CC2)CO[C@@H](C)[C@H]3N)c(CO)nc1-c1cccc(Cl)c1Cl [Compound B]
Cellular sensitivity (SHP2 WT): yes (Sensitive if IC50 < 2000 nM) | Cellular sensitivity (SHP2 S189A): yes (Sensitive if IC50 < 2000 nM) | Cellular sensitivity (SHP2 P491S): no (Sensitive if IC50 < 2000 nM) | Cellular sensitivity (SHP2 T73I): yes (Sensitive if IC50 < 2000 nM) | Cellular sensitivity (SHP2 S502P): yes (Sensitive if IC50 < 2000 nM) | Cellular sensitivity (SHP2 Q506P): yes (Sensitive if IC50 < 2000 nM) | Biochemical sensitivity (SHP2 T253M/Q257L [1]): no (Sensitive if IC50 < 2000 nM) | Cellular sensitivity (SHP2 E69K): yes (Sensitive if IC50 < 2000 nM) | Cellular sensitivity (SHP2 D61G): yes (Sensitive if IC50 < 2000 nM) | Cellular sensitivity (SHP2 E76K): no (Sensitive if IC50 < 2000 nM) | Cellular sensitivity (SHP2 A72V): no (Sensitive if IC50 < 2000 nM) | inhibition of engineered double mutant in the Compound B binding site (SHP2 T253M/Q257L [2]; T253M/Q257L, cellular pERK): insensitive to inhibition | Cellular sensitivity (SHP2 T253M/Q257L [2]; Variant T253M/Q257L): no (Sensitive if IC50 < 2000 nM) | Cellular sensitivity (SHP2 L262R): yes (Sensitive if IC50 < 2000 nM) | Cellular sensitivity (SHP2 F285S): yes (Sensitive if IC50 < 2000 nM)
